Here are results for 5 compounds from patent publication US20260199443A1, “HISTONE DEACYTLASE 6 MODULATION OF TITIN PROTEIN MEDIATED CARDIAC TISSUE STIFFNESS AND METHOD FOR SAME” (The Regents of the University of Colorado, a Body Corporate, priority 2019, published 2026).

Entries after “also recorded” stand apart in the source; their conditions may differ. Like-named read-outs stand apart in the source and are kept apart here.

Data set [1] has as its system adult rat ventricular myocytes (ARVMs). Put plainly: Myofibril resting tension after 24 hour treatment of cultured ARVMs. The data set is classed as cell-based. The settings on record: myofibrils isolated from ARVMs treated for 24 hours.
For data set [2], the system named is diastolic dysfunction in murine models. As to conditions: murine models of hypertension and aging, reference (21); cited from earlier work.
A further data set concerns the target T1, HDAC6 (Rattus norvegicus, UniProt A0A8I6GM68).
T1 construct: endogenous in cells; host or cells: adult rat ventricular myocytes (ARVMs) from Sprague Dawley rats
In words: Tubulin acetylation in treated ARVMs as a marker of HDAC6 inhibition (immunofluorescence, immunoblot). The class given is cell-based. As to conditions: ARVMs treated for 24 hours. The text has this:
FIG. 1K are images of immunoblot analysis of acetyl-tubulin and total tubulin in whole-cell homogenates from treated ARVMs.
Background: A western blot detects proteins with antibodies after separation by electrophoresis.

The next data set relates to rat myofibrils (titin). In words: Ex vivo incubation of purified rat myofibrils with recombinant enzyme, then myofibril mechanics. The settings on record: 30 minutes. As to the method: (§1) Myofibril mechanics were quantified using the fast solution switching technique (47). Frozen LV sections were skinned in 0.5% Triton-X in rigor solution (132 mM NaCl, 5 mM KCl, 1 mM MgCl2, 10 mM Tris, 5 mM EGTA, pH 7.1) containing protease inhibitors (10 μm leupeptin, 5 μm pepstatin, 200 μm PMSF and 10 μm E64), as well as 500 μm NaN3 and 500 μm DTT at 4° C. overnight. Skinned LVs were washed in fresh rigor solution and homogenized (Tissue-Tearor, Thomas Scientific) in relaxing solution (pCa 9.0) containing protease inhibitors. […] Average sarcomere lengths and myofibril diameters were measured using ImageJ software. […] Data were collected and analyzed using customized Lab View software. Measured mechanical and kinetic parameters were defined as follows: resting tension (mN/mm^2)=myofibril basal tension in fully relaxing condition; maximal tension (mN/mm^2)=maximal tension generated at full calcium activation (pCa 4.5); the rate constant of tension development following maximal calcium activation=kACT; and relaxation parameters were defined as: duration of the linear relaxation=linear duration, and the rate constant of exponential relaxation=fast kREL. For, myofibril resting tension-to-sarcomere length curves, each myofibril was stretched incrementally to determine the resting tension at different sarcomere lengths, and a resting tension-sarcomere length relationship was measured. […]

The test system of data set [3] is myofibrils from non-failing human LVs. In words: Ex vivo treatment of human myofibrils with recombinant PKCα, with or without subsequent recombinant HDAC6, then myofibril mechanics. As to the method:
Myofibril mechanics were quantified using the fast solution switching technique (47). Frozen LV sections were skinned in 0.5% Triton-X in rigor solution (132 mM NaCl, 5 mM KCl, 1 mM MgCl2, 10 mM Tris, 5 mM EGTA, pH 7.1) containing protease inhibitors (10 μm leupeptin, 5 μm pepstatin, 200 μm PMSF and 10 μm E64), as well as 500 μm NaN3 and 500 μm DTT at 4° C. overnight. Skinned LVs were washed in fresh rigor solution and homogenized (Tissue-Tearor, Thomas Scientific) in relaxing solution (pCa 9.0) containing protease inhibitors. Myofibril suspensions were transferred to a temperature controlled chamber (15° C.) containing relaxing solution (pCa 9.0; 100 mM Na2EGTA; 1 M potassium propionate; 100 mM Na2SO4; 1 M MOPS; 1 M MgCl2; 6.7 mM ATP; and 1 mM creatine phosphate; pH 7.0). Myofibril bundles were mounted between two micro-tools. One tool was connected to a motor that could produce rapid length changes (Mad City Labs). The second tool was a calibrated cantilevered force probe (7-10 μm/μN; frequency response 2-5 KHz). Myofibrils were set 5-10% above slack myofibril length. Average sarcomere lengths and myofibril diameters were measured using ImageJ software. Mounted myofibrils were activated and relaxed by rapidly translating the interface between two flowing streams of solutions of different pCa. Data were collected and analyzed using customized Lab View software. Measured mechanical and kinetic parameters were defined as follows: resting tension (mN/mm^2)=myofibril basal tension in fully relaxing condition; maximal tension (mN/mm^2)=maximal tension generated at full calcium activation (pCa 4.5); the rate constant of tension development following maximal calcium activation=kACT; and relaxation parameters were defined as: duration of the linear relaxation=linear duration, and the rate constant of exponential relaxation=fast kREL. For, myofibril resting tension-to-sarcomere length curves, each myofibril was stretched incrementally to determine the resting tension at different sarcomere lengths, and a resting tension-sarcomere length relationship was measured. […]

The subject of data set [4] is PKC-driven phosphorylation of sacromeric proteins. In words: Immunoblot with anti-PKC substrate antibody of treated human myofibril proteins. The class given is biochemical. As to conditions: human myofibrils, PKCα followed by HDAC6. As to the method: FIG. 3E is an immunoblot performed with an anti-PKC substrate antibody and solubilized proteins from myofibrils treated as indicated in the protocol illustrated in FIG. 3B.
Elevated PEVK phosphorylation is s associated with increased cardiomyocyte passive stiffness in pre-clinical models and in human heart failure (7). To begin to address the therapeutic potential of HDAC6 gain-of-function, an ex vivo experiment was performed to determine whether HDAC6 is capable of overriding the cardiac stiffening effect of PKC. Myofibrils obtained from non-failing human LVs were pretreated with recombinant PKCα, washed, and then incubated with recombinant HDAC6 (FIG. 3B).

In data set [5] the test system is myofibrils from mice lacking the PEVK region of titin. In words: Ex vivo treatment of PEVK KO mouse LV myofibrils with recombinant HDAC6, then myofibril mechanics. As to conditions: 30 minutes. As to the method:
as §1

For data set [6], the system named is human myofibrils from non-failing donor left ventricle (titin). Put plainly: Ex vivo treatment of human LV myofibrils with recombinant HDAC6, then myofibril mechanics. As to the method: as §1
Data set [7] concerns WT mouse left ventricle myofibrils (titin). In words: Ex vivo treatment of WT mouse LV myofibrils with recombinant HDAC6, then myofibril mechanics. As to conditions: 30 minutes, listed as rHDAC6. As to the method: as §1

T1 sequence (A0A8I6GM68 whole entry): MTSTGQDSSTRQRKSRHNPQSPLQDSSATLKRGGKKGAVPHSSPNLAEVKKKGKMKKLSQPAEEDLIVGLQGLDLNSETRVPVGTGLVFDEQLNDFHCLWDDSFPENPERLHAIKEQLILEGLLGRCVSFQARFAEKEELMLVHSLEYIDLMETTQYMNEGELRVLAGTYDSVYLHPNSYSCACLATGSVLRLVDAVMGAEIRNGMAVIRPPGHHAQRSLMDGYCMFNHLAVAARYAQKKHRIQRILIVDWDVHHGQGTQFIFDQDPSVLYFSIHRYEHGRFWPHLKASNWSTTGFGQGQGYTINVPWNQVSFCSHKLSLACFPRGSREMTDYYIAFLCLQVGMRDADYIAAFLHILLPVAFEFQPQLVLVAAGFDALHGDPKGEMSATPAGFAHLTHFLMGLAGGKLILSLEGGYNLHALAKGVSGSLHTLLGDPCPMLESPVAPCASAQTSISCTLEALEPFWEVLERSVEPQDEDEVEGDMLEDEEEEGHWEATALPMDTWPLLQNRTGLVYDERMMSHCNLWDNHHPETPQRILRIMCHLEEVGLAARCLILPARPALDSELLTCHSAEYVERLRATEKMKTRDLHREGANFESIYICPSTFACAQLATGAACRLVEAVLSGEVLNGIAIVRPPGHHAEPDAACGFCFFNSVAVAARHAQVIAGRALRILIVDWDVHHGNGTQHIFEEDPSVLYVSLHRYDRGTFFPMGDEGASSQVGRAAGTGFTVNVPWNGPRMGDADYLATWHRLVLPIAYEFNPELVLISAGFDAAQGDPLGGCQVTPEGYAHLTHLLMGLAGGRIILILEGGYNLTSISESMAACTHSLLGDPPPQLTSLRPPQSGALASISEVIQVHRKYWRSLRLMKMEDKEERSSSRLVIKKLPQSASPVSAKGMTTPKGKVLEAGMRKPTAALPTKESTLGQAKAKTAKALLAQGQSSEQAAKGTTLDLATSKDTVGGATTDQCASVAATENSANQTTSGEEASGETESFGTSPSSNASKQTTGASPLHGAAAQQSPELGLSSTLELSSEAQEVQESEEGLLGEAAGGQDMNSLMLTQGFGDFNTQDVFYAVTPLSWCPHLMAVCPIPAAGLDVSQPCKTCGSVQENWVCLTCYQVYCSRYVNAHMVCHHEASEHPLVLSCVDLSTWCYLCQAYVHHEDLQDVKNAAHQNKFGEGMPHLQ

On to `CCN(CC)Cc1ccc2cc(COC(=O)Nc3ccc(C(=O)NO)cc3)ccc2c1` [givinostat, [6-(diethylaminomethyl)naphthalen-2-yl] methyl N-[4-(hydroxycarbamoyl)phenyl] carbamate], for which the “myofibril resting tension / myofibril stiffness” value in [1] is on record as “no effect”. The diastolic dysfunction result in [2] was “ameliorates rather than exacerbates diastolic dysfunction”.
For the compound `CN1CCc2c(c3ccccc3n2Cc2ccc(C(=O)NO)cc2)C1` [tubastatin A], the “myofibril resting tension / myofibril stiffness” value in data set [1] is reported as “elevated resting tension; also recorded: dramatically increased resting tension”. Also, the “tubulin acetylation as a marker of HDAC6 inhibition” value at HDAC6 is “inhibited HDAC6 equivalently”.
Regarding “HDAC2: recombinant HDAC2 used as control in the ex vivo myofibril assay”, the “titin stiffness / myofibril compliance” value with rat myofibrils (titin) was “not”.
In the case of “PKCα: recombinant PKCα (0.066 U/μL, Millipore 14-484) with lipid activator”, in data set [3] (human myofibrils treated with recombinant PKCα alone), the “myofibril resting tension at physiologic sarcomere length” value is “dramatically increased”.
On to “recombinant HDAC6: recombinant HDAC6 (1 μg/μL, BPS Bioscience) used for ex vivo treatment of myofibrils”, for which, in data set [4], the “PKC-driven phosphorylation of sacromeric proteins” value is listed as “without affecting”. The “response of myofibril stiffness to HDAC6” value in data set [5] was “completely resistant”. The “PKC-induced leftward shift in the sarcomere length-to-resting tension curve” value in data set [3] (human myofibrils pretreated with recombinant PKCα, then recombinant HDAC6) was “largely blocked”. Further, the “PKCα-induced stiffening (resting tension at physiologic sarcomere length)” value in data set [3] (human myofibrils pretreated with recombinant PKCα, washed, then incubated with recombinant HDAC6) is given as “completely normalized”. Also, the “myofibril compliance / cardiomyocyte passive stiffness” value is “increases myofibril compliance” in data set [6] and “conserved ability of this deacetylase to control cardiomyocyte passive stiffness” in [6] (listed as rHDAC6). The “titin stiffness / myofibril compliance” value in the data set with rat myofibrils (titin) was “reduced titin stiffness; also recorded: increases myofibril compliance”. Also, the myofibril compliance result in [7] is on record as “increased compliance”.
